Legend:
human CH24H = human CH24H (Homo sapiens (Human), UniProt Q9Y6A2); assay: Measurement of CH24H inhibitory activity (24-HC produced from [14C]cholesterol by human CH24H lysate); assay type: biochemical; conditions: [14C]cholesterol 15 μM, 37° C. for 5 hr
Description: The expression of human CH24H was performed using FreeStyle 293 Expression System (Invitrogen). […] After transfection, the cells were cultured at 37° C., 8% CO2 with shaking at 125 rpm for 2 days. The cells were collected by centrifugation, and suspended in a suspension buffer (100 mM potassium phosphate (pH 7.4), 0.1 mM EDTA, 1 mM DTT, 20% Glycerol). The suspended product was disrupted by a polytron homogenizer (manufactured by Kinematica), and centrifuged at 9000×g for 10 min, and the supernatant was collected. The collected supernatant was cryopreserved (−80° C.) as a human CH24H lysate standard product.
For the measurement of CH24H inhibitory activity, using the human CH24H lysate prepared in Experimental Example 2, the amount of 24-HC produced from cholesterol by catalytic activity of CH24H was measured in the presence of a test compound, and compared with that measured in the absence of the test compound. That is, a test compound solution at various concentrations was mixed with a reaction buffer (50 mM potassium phosphate containing 0.1% BSA and Complete, EDTA-free, pH 7.4) and human CH24H lysate. Then, [^14C] cholesterol (53 mCi/mmol specific activity, 15 μM) was added, and CH24H reaction was performed at 37° C. for 5 hr. After completion of the reaction, a quenching solution consisting of chloroform/methanol/distilled water (2:2:1 v/v) was added, and the resulting 24-HC was extracted by shaking. The extract was applied to silica gel thin layer chromatography (ethyl acetate:toluene=4:6), and the obtained ^14C-24HC fraction was measured with BAS2500 (Fujifilm Corporation).
The inhibitory rate (%) and IC50 values (μM) were calculated from the ratio of radioactivity in the presence of a test compound relative to the radioactivity in the absence of the test compound.

CH24H = CH24H (Macaca mulatta, UniProt I2CYF7); assay: PET measurements and image analysis after intravenous bolus of radiotracer; assay type: in vivo, rhesus macaque (macaca mulatta); conditions: for BPND in the putamen: Logan graphical analysis, cerebellum as reference region, t* 40 min
Description: Animals were fasted for 18-24 h before the study. At 2 h prior to injection of the radiopharmaceutical, the animals were anesthetized with intramuscular ketamine (10 mg/kg) and glycopyrrolate (0.01 mg/kg), transferred to the PET camera, and immediately intubated with an endrotracheal tube for continued anesthesia with 2.75% isoflurane administered through a rebreathing circuit. Body temperature was kept at 37° C. using a heated water blanket. Vital signs, including heart rate, blood pressure, respiration rate, oxygen saturation and body temperature, were monitored every 3 to 20 min during the study.
The dynamic series were subsequently reconstructed using filtered back projection with corrections for random, scatter, and attenuation provided by the camera manufacturer.
Four samples of 5 mL were drawn at 3, 10, 30 and 60 min post injection to evaluate the stability in blood as well as the metabolite analysis method and HPLC conditions.
Reconstructed PET image data volumes were transferred to the image processing PMOD software package (PMOD Technologies, Zurich, Switzerland) where the images were realigned with the monkey's individual MRI to apply a volume of interest (VOI) template comprising the following regions: whole brain, caudate nucleus, putamen, globus pallidus, frontal cortex, temporal cortex, occipital cortex, parietal cortex, anterior cingulate cortex, posterior cingulated cortex, hippocampus, thalamus, and cerebellum. Average activity concentration (kBq/cc) within each VOI was determined and time activity curves (TAC) were generated for each study, depicting the regional brain activity concentration over time and reflecting total uptake (specific plus non displaceable). Time activity curves were also expressed in SUV (Standard Uptake Value) units (g/mL) by normalizing by the weight of the animal and the injected dose. Logan graphical analysis with reference region input function was applied to the regional time activity curves with t* fixed at 40 min to obtain an estimate of BPND (Binding Potential relative to the Non-Displaceable compartment), where the cerebellum was used as the reference region.

[1] = system: other CNS related human receptors and enzymes; assay: Selectivity assay over other CNS related human receptors and enzymes (Eurofins Panlabs, Tables 3-1 and 3-2); assay type: binding; conditions: at 10 μM
Description: The CH24H IC50 is a measure of the ability of the test compound to inhibit the action of the CH24H enzyme. To determine the selectivity of the test compounds for CH24H, inhibitory activities of the compound were determined for other CNS (central nerve system) related receptors and enzymes such as Adenosine A2B, Adrenergic β1, Adrenergic β2, Adrenergic β3, Angiotensin AT2, Bradykinin B1, Cannabinoid CB1, Carbonic Anhydrase II, Acetyl Cholinesterase, Cyclooxygenase (COX-1), Cyclooxygenase (COX-2), Dopamine D1, Dopamine D2L, Dopamine D3, Dopamine D4.2, GABA B1A, GABA B1B, Histamine H1, Histamine H2, Imidazoline I2 (Central), MAO A, MAO B, Muscarinic M1, Muscarinic M2, Muscarinic M3, Opiate κ (OP2, KOP), Opiate μ (OP3; MOP), Metalloproteinase, Phosphodiesterase 4 (PDE4), Phosphodiesterase 5 (PDE5), 5-HT2B, NK2, NK3, Dopamine transporter, Norepinephrine transporter, Serotonin transporter (SERT), Vasopressin V1A. […] Such a result is indicative of the selectivity of the compounds in use as radiotracers for quantitative imaging of CH24H. In general, one of ordinary skill in the art would appreciate that a substance is considered to be effectively used for quantitative imaging of CH24H if it has an activity in inhibiting other CNS related receptors and enzymes with less than 50% at 10 μM. […]

Sequence of CH24H (I2CYF7 1-500): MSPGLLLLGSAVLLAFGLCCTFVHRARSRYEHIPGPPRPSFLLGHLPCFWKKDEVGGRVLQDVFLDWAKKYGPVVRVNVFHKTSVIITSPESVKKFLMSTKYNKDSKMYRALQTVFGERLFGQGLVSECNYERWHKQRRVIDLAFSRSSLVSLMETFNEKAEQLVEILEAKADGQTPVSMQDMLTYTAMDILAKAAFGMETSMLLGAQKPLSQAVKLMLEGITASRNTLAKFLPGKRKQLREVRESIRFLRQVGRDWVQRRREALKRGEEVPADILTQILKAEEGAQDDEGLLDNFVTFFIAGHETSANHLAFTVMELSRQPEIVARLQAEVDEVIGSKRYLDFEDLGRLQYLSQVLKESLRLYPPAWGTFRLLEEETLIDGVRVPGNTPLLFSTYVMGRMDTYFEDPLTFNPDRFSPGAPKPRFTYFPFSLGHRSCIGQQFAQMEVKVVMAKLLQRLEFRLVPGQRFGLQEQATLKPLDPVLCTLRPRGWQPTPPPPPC
Sequence of human CH24H (Q9Y6A2 whole entry): as the sequence (I2CYF7 1-500) above, with I87V, S417G, T494A counted along it

| Molecule | IC50 (human CH24H) | also measured |
| --- | --- | --- |
| CN(C(=O)C1CCN(c2cnccc2-n2cc(Cl)cn2)CC1)[C@@H]1CCOC1 [Reference Example 14, 1-(4-(4-chloro-1H-pyrazol-1-yl)pyridin-3-yl)-N-methyl-N-((3R)-tetrahydrofuran-3-yl)piperidine-4-carboxamide] | 17 nM | – |
| Cc1cnn(-c2ccncc2N2CCN(C(=O)N(CCF)Cc3ccc(F)cc3)CC2)c1 [Reference Example 23, N-(4-fluorobenzyl)-N-(2-fluoroethyl)-4-(4-(4-methyl-1H-pyrazol-1-yl)pyridin-3-yl)piperazine-1-carboxamide] | 17 nM | – |
| (1-(4-(4-chloro-1H-pyrazol-1-yl)pyridin-3-yl)piperidin-4-yl) (3-[^18F]fluoroazetidin-1-yl)methanone [Example 1] | – | BPND in the putamen (CH24H): 2.3; brain kinetics (CH24H; female rhesus macaque, PET time activity curves): favorable kinetics with a significant washout following the maximum uptake; regional brain uptake (distribution) (CH24H; female rhesus macaque, PET time activity curves (FIG. 1, FIG. 2)): highest uptake in the putamen and caudate; whole-brain maximum % ID (CH24H; female rhesus macaque, i.v. bolus, PET): 1.6% |
| O=C(C1CCN(c2cncnc2-c2ccc(F)cc2)CC1)N1CC[C@@H](F)C1 [Reference Example 11, (1-(4-(4-fluorophenyl)pyrimidin-5-yl)piperidin-4-yl) ((3R)-3-fluoropyrrolidin-1-yl)methanone] | 16 nM | – |
| O=C(C1CCN(c2cnccc2-n2cc(Cl)cn2)CC1)N1CC(F)C1 [Reference Example 5, (1-(4-(4-chloro-1H-pyrazol-1-yl)pyridin-3-yl)piperidin-4-yl) (3-fluoroazetidin-1-yl)methanone] | 19 nM | – |
| O=C(C1CCN(c2cncnc2-c2ccc(F)cc2)CC1)N1CC[C@H](F)C1 [Reference Example 10, (1-(4-(4-fluorophenyl)pyrimidin-5-yl)piperidin-4-yl) ((3S)-3-fluoropyrrolidin-1-yl)methanone] | 20 nM | – |
| O=C(C1CCN(c2cncnc2-c2ccc(F)cc2)CC1)N1CC(F)C1 [Reference Example 2, (3-fluoroazetidin-1-yl) (1-(4-(4-fluorophenyl)pyrimidin-5-yl)piperidin-4-yl)methanone] | 8.8 nM | inhibition in the assays listed in Tables 3-1 and 3-2 [1]: less than 50% |
| O=C(C1CCN(c2cncnc2-c2ccc(F)cc2)CC1)N1CC([18F])C1 [Example 2, (3-[^18F]fluoroazetidin-1-yl) (1-(4-(4-fluorophenyl)pyrimidin-5-yl)piperidin-4-yl)methanone] | – | BPND in the putamen (CH24H): 2.6; brain kinetics (CH24H; rhesus monkey, in vivo): favorable kinetics with a significant washout following the maximum uptake; regional brain uptake (distribution) (CH24H; rhesus monkey, in vivo): highest uptake in the putamen and caudate; time of maximum SUV in the putamen (CH24H; rhesus monkey, in vivo, iv): ~30 min post injection; whole-brain maximum % ID (CH24H; rhesus monkey, in vivo, iv): 2.3% |
| CN(C(=O)C1CCN(c2cnccc2-n2cc(Cl)cn2)CC1)[C@H]1CCOC1 [Reference Example 13, 1-(4-(4-chloro-1H-pyrazol-1-yl)pyridin-3-yl)-N-methyl-N-((3S)-tetrahydrofuran-3-yl)piperidine-4-carboxamide] | 20 nM | – |

Further molecules by falling IC50 (human CH24H), results first:

| IC50 (human CH24H) | Molecule | also measured |
| --- | --- | --- |
| 10 nM | O=C(C1CCN(c2cnccc2-n2cc(C3CC3)cn2)CC1)N1CC(F)C1 [Reference Example 26, (1-(4-(4-cyclopropyl-1H-pyrazol-1-yl)pyridin-3-yl)piperidin-4-yl) (3-fluoroazetidin-1-yl)methanone] | – |
| 7.4 nM | CN(C(=O)C1CCN(c2cnccc2-n2cc(Cl)cn2)CC1)C1CCOCC1 [Reference Example 3, 1-(4-(4-chloro-1H-pyrazol-1-yl)pyridin-3-yl)-N-methyl-N-(tetrahydro-2H-pyran-4-yl)piperidine-4-carboxamide] | – |
| 7.1 nM | Cc1cnn(-c2ccncc2N2CCC(C(=O)N3CC(F)C3)CC2)c1 [Reference Example 4, (3-fluoroazetidin-1-yl) (1-(4-(4-methyl-1H-pyrazol-1-yl)pyridin-3-yl)piperidin-4-yl)methanone] | – |
| 6.9 nM | O=C(C1CCN(c2cnccc2-n2cc(Br)cn2)CC1)N1CC(F)C1 [Reference Example 20, (1-(4-(4-bromo-1H-pyrazol-1-yl)pyridin-3-yl)piperidin-4-yl) (3-fluoroazetidin-1-yl)methanone] | – |
| 5.4 nM | CN(C(=O)C1CCN(c2cncnc2-c2ccc(F)cc2)CC1)C1CC1 [Reference Example 1, N-cyclopropyl-1-(4-(4-fluorophenyl)pyrimidin-5-yl)-N-methylpiperidine-4-carboxamide] | – |
| 4.9 nM | Cc1cnc(-c2ccncc2N2CCC(C(=O)N3CC(F)C3)CC2)s1 [Reference Example 21, (3-fluoroazetidin-1-yl) (1-(4-(5-methyl-1,3-thiazol-2-yl)pyridin-3-yl)piperidin-4-yl)methanone] | – |

Reference: US9963443B2, “Radiolabeled compounds” (TAKEDA PHARMACEUTICAL COMPANY LIMITED, priority 2014, dated 2018)
